In patent US11771685B2, “Compounds for the treatment of neurological or mitochondrial diseases” (MUSC FOUNDATION FOR RESEARCH DEVELOPMENT, priority 2018, dated 2023):
≈ marks a conversion by molar mass, not a printed value.

Experiments:
[1] = tested on: 6 Hz electrically-induced seizures in mice; test: 6 Hz mouse seizure model; type: in vivo; conditions: for 6 Hz 32 mA N/T, mice protected / 6 Hz 44 mA N/T, mice protected: 1 hr; for Number of Animals Protected / Effective Dose / Time of Peak Effect: 5% DMSO: 95% Neobee; for protection against seizures, preliminary testing: toxicity by Rotarod assay and behavioral observations
Protocol: In particular, using (i) electrical model to test for seizures in mice and, separately, (ii) in rat 6 Hz 40V model. More specifically, NT-102 was injected (i.p.) in 5% DMSO/95% Miglyol 840 as vehicle. […] […] The mice were administered the NT-102 at various doses and placed on the rotarod (i.e., “Rotarod (Tox)”) to test if the mice would fall off as a model of due to the effects of NT-102; for the “Rotarod(Tox)” results, the “NIT” indicates the number of mice that fell off the rotarod (e.g., for Rotarod(Tox) results, if N/T is 0/8, then zero out of eight mice fell off). […] […] The 44 mA electrical dosage was used since it is considered to be a model to test for medication-resistant epilepsy.

rat brain slices = test: Rat in vitro spontaneous electrographic bursting model
Protocol: (§1) Synthesis for both compounds has been successfully scaled up. The pharmacokinetic (PK) parameters of these two Vitamin K analogs were determined via intravenous, intraperitoneal and oral administration in mice, and preliminary in vitro ADMET parameters were assessed (Table 3). These compounds are Ames-negative, have hepatic stability greater than 1 hour, can be formulated in oral solution and IV injection solution, can be synthesized in greater than 1 mg quantities, and have established brain PK. However, brain tissue binding was high for both compounds (97-98%). Both 3 (NT-181) and 17 (NT-102) have been tested for efficacy in the 6 Hz mouse seizure model at 22 mA and 32 mA, the corneal kindled mouse model, and the rat in vitro spontaneous electrographic bursting model of pharmacoresistance (Table 4). […] Preliminary studies with this new formulation reveal excellent solubility with full protection in the 6 Hz mouse seizure model at 22 mA, and quantification of both compounds (using this new formulation) in this model at 22 mA, 32 mA and 44 mA, is being performed as well as retesting in the corneal kindled model. […] Rat PK assessments will be performed, and seizure protection assessed in rat models in the ADD workflow such as the 6 Hz model and lamotrigine-resistant amygdala kindled mode.

[2] = In vivo pharmacokinetics in CD-1 mice; conditions: male, CD-1, mouse, plasma, ip, 20 mg/kg, intraperitoneal 20 mg/kg, 5% DMSO: 95% neobee
[3] = Rotarod neurotoxicity test in mice; type: in vivo, mouse; conditions: 1 hr, 44 mA study
Protocol: Mice or rats were administered the NT-102 compound i.p., one hour was allowed to pass (since the time to peak effect was determined to be about one hour), and then rodents were then placed on the Rotarod to determine if any motor defects would be observed; after the rotarod test, then rodents were administered an electrical stimulation to determine if the dose of NT-102 would protect against (i.e., prevent) the seizures due to the electrical stimulation. In particular, using (i) electrical model to test for seizures in mice and, separately, (ii) in rat 6 Hz 40V model. More specifically, NT-102 was injected (i.p.) in 5% DMSO/95% Miglyol 840 as vehicle. Mice were challenged with 6 Hz 44 mA current to see if seizures would result. […] The Time of Peak Effect (TPE) was observed 1 hour. Additional data is shown below in Table 5. The mice were administered the NT-102 at various doses and placed on the rotarod (i.e., “Rotarod (Tox)”) to test if the mice would fall off as a model of due to the effects of NT-102; for the “Rotarod(Tox)” results, the “NIT” indicates the number of mice that fell off the rotarod (e.g., for Rotarod(Tox) results, if N/T is 0/8, then zero out of eight mice fell off). For the electrical stimulation data (i.e., “6 Hz 44 mA”), an electrical stimulation of 6 Hz 44 mA was administered. […] The 44 mA electrical dosage was used since it is considered to be a model to test for medication-resistant epilepsy.

[4] = Rotarod neurotoxicity test in mice; type: in vivo, mouse; conditions: for Rotarod (Tox) N/T, mice that fell off: 1 hr, 32 mA study; for Neurotoxicity (Rotorod assay), animals showing toxicity: 5% DMSO: 95% Neobee
[5] = tested on: 6 Hz 40 V electrically-induced seizures in rats; test: Rat 6 Hz 40 V seizure model; type: in vivo
Protocol: In particular, using (i) electrical model to test for seizures in mice and, separately, (ii) in rat 6 Hz 40V model. More specifically, NT-102 was injected (i.p.) in 5% DMSO/95% Miglyol 840 as vehicle. Mice were challenged with 6 Hz 44 mA current to see if seizures would result. […] The Time of Peak Effect (TPE) was observed 1 hour. Additional data is shown below in Table 5. The mice were administered the NT-102 at various doses and placed on the rotarod (i.e., “Rotarod (Tox)”) to test if the mice would fall off as a model of due to the effects of NT-102; for the “Rotarod(Tox)” results, the “NIT” indicates the number of mice that fell off the rotarod (e.g., for Rotarod(Tox) results, if N/T is 0/8, then zero out of eight mice fell off). For the electrical stimulation data (i.e., “6 Hz 44 mA”), an electrical stimulation of 6 Hz 44 mA was administered. […] The 44 mA electrical dosage was used since it is considered to be a model to test for medication-resistant epilepsy.
The 6 Hz 40 V electrical stimulation amount was used because this electrical dosage is considered to be a rat model for medication-resistant epilepsy.

corneal kindled mouse = test: Mouse corneal kindled model; type: in vivo; conditions: 5% DMSO: 95% Neobee
Protocol: as §1

[6] = Aqueous solubility at pH 7.4; type: physicochemical; conditions: pH 7.4, aqueous buffer; 50 mM phosphate buffer

In the case of `CC(C)CCNC1=CC(=O)c2ccccc2C1=O` [Compound 17, 2-(Isopentylamino)naphthalene-1,4-dione], the “6 Hz 32 mA N/T, mice protected” value ([1]; 50 mg/kg) is reported as 0/8, the “6 Hz 44 mA N/T, mice protected” value ([1]; 100 mg/kg i.p.) is reported as 0/8 and the “6 Hz 32 mA N/T, mice protected” value ([1]; 100 mg/kg) is reported as 4/8. The “6 Hz 44 mA N/T, mice protected” value ([1]; 200 mg/kg i.p.) was 2/8, the “6 Hz 32 mA N/T, mice protected” value ([1]; 200 mg/kg) was 3/8 and the “6 Hz 44 mA N/T, mice protected” value ([1]; 300 mg/kg i.p.) was 4/8. The “6 Hz 32 mA N/T, mice protected” value ([1]; 300 mg/kg) was 7/8, the “6 Hz 44 mA N/T, mice protected” value ([1]; 400 mg/kg i.p.) was 8/8 and the “Time of Peak Effect (TPE)” value ([1]; 6 Hz 44 mA, i.p., 5% DMSO/95% Miglyol 840) was 1 h. The “Number of Animals Protected” value ([1]; 22 mA, 400 mg/kg) was 8/8 at 400 mg/kg, the “Effective Dose” value ([1]; 22 mA) was 209.05 (25-400) mg/kg and the “Time of Peak Effect” value ([1]; 22 mA) was 0.25 h. The “Number of Animals Protected” value ([1]; 32 mA, 400 mg/kg) was 2/8 at 400 mg/kg, the ED50 ([1]; Mus musculus, 6 Hz 32 mA) was 153 mg/kg and the “protection against seizures, preliminary testing” value [1] was “displayed protection against seizures with few or no toxic events”. For the same compound, the Number protected (rat brain slices; 10 uM) was 0/9 at 10 uM, the AUC(0-inf) [2] was 1730 ng·h/mL and the Cmax [2] was 320 ng/mL. The MRT inf [2] was 4.39 h, the Tmax [2] was 1 h and the “Rotarod (Tox) N/T, mice that fell off” value ([3]; 100 mg/kg i.p.) was 0/8. For the same compound, the “Rotarod (Tox) N/T, mice that fell off” value ([3]; 200 mg/kg i.p.) was 2/8, the “Rotarod (Tox) N/T, mice that fell off” value ([3]; 300 mg/kg i.p.) was 0/8 and the “Rotarod (Tox) N/T, mice that fell off” value ([3]; 400 mg/kg i.p.) was 1/8. The “Rotarod (Tox) N/T, mice that fell off” value ([4]; 50 mg/kg) was 0/8, the “Rotarod (Tox) N/T, mice that fell off” value ([4]; 100 mg/kg) was 0/8 and the “Rotarod (Tox) N/T, mice that fell off” value ([4]; 200 mg/kg) was 1/8. For the same compound, the “Rotarod (Tox) N/T, mice that fell off” value ([4]; 300 mg/kg) was 3/8, the “Neurotoxicity (Rotorod assay), animals showing toxicity” value [4] was 0/72 showed toxicity and the “6 Hz 40 V N/T, rats protected” value ([5]; 200 mg/kg, 1 hr) was 1/8. The “6 Hz 40 V N/T, rats protected” value ([5]; 250 mg/kg, 1 hr) was 2/8, the “6 Hz 40 V N/T, rats protected” value ([5]; 300 mg/kg i.p., 0.25 hr) was 3/8 and the “6 Hz 40 V N/T, rats protected” value ([5]; 300 mg/kg i.p., 0.5 hr) was 0/8. For the same compound, the “6 Hz 40 V N/T, rats protected” value ([5]; 300 mg/kg i.p., 1 hr) was 5/8, the “6 Hz 40 V N/T, rats protected” value ([5]; 300 mg/kg i.p., 2 hr) was 0/4 and the “6 Hz 40 V N/T, rats protected” value ([5]; 300 mg/kg i.p., 4 hr) was 0/4. For the same compound, the “6 Hz 40 V N/T, rats protected” value ([5]; 350 mg/kg, 1 hr) was 6/8, the ED50 ([5]; Rattus norvegicus, 6 Hz 40 V) was 293 mg/kg and the “Time to peak result” value ([5]; i.p., 6 Hz 40 V) was “about one”. The “Number of Animals Protected” value (corneal kindled mouse; 100, 300 and 400 mg/kg) was 0/24 at 100, 300 and 400 mg/kg and the solubility [6] was 9.64 µg/mL (≈ 39.6 µM).

In the case of `CCC#CCNC1=CC(=O)c2ccccc2C1=O` [Compound 3, 2-(Pent-2-yn-1-ylamino)naphthalene-1,4-dione], the “Number of Animals Protected” value ([1]; 22 mA, 100 mg/kg) is reported as 8/8 at 100 mg/kg, the “Effective Dose” value ([1]; 22 mA) is reported as 80.60 (25-100) mg/kg and the “Time of Peak Effect” value ([1]; 22 mA) is reported as 0.5 h. The “Number of Animals Protected” value ([1]; 32 mA, 100 mg/kg) was 0/7, the “Number of Animals Protected” value ([1]; 32 mA, 300 mg/kg) was 3/8 and the “Number of Animals Protected” value ([1]; 44 mA, 100 mg/kg) was 0/8 at 100 mg/kg. For the same compound, the “protection against seizures, preliminary testing” value [1] was “displayed protection against seizures with few or no toxic events”, the Number protected (rat brain slices; 5 uM) was 0/8 at 5 uM and the AUC(0-inf) [2] was 478 ng·h/mL. The Cmax [2] was 147 ng/mL, the MRT inf [2] was 4.2 h and the Tmax [2] was 1 h. The “Neurotoxicity (Rotorod assay), animals showing toxicity” value [4] was 1/71 showed toxicity, the “Number of Animals Protected” value (corneal kindled mouse; 300 mg/kg) was 0/8 at 300 mg/kg and the solubility [6] was 4.79 µg/mL (≈ 20 µM).
